{
  "source": "patent US9226506B2",
  "about": "“Methods of weed control in chicory” (Dow AgroSciences LLC, priority 2013, dated 2016)",
  "key": {"[1]": {"tested_on": "chicory (varieties Ecrine, Hermès)", "assay": "Chicory root development (number of roots) after post-emergence applications", "assay_type": "in vivo, Cichorium intybus", "settings": "treatment with penoxsulam in chicory field trials", "experimental": "Field trials were conducted in Northern France and Belgium, both of which are major areas for root chicory and whitloof chicory production. Trials were conducted in accordance with EPPO standard PP 1/99(3) entitled “Weeds in Roots Vegetables,” PP 1/152(4) entitled “Design and Analysis of Efficacy Evaluation Trials,” PP 1/135(3) entitled “Phytotoxic Assessment,” and PP 1/181(4) entitled “Conduct and Reporting of Efficacy Evaluation Trials Including Good Experimental Practice,” all of which are incorporated herein by reference in their entirety. […]\nIn whitloof chicory (Cichorium intybus), treatments were evaluated which included either two or three post-emergence applications of herbicide. Multiple applications of herbicide were evaluated for their ability to control weed emergence during the extended period of time required for chicory cultivation. […]\nHarvest was carried out 171 DAAC on 4 rows per plot. After harvest, the roots were counted and weighted, and the percent of roots usable for forcing was measured. […] The brut yield (total weight of chicons produced; marketable+non-marketable), net yield (weight of marketable chicons produced) and best class yield (Extra+1=weight of Extra and First Class chicons produced) were measured (in kilograms per 10 square meters (kg/10 m^2))."}, "[2]": {"tested_on": "chicory (varieties Ecrine, Hermès)", "assay": "Yield of chicons after forcing", "assay_type": "in vivo, Cichorium intybus", "settings": "171 DAAC and 21 days after start of forcing; for Yield of Chicons, Brut, Average / Yield of Chicons, Brut, Ecrine / Yield of Chicons, Brut, Hermès: total weight of chicons; for Yield of Chicons, Brut, Average: average of both varieties; for Yield of Chicons, Extra + 1, Ecrine / Yield of Chicons, Extra + 1, Hermès: weight of Extra and First Class chicons; for Yield of Chicons, Net, Ecrine / Yield of Chicons, Net, Hermès: weight of marketable chicons", "experimental": "Trials were also performed to investigate the effect of post-emergence applications of penoxsulam or SAFARI® (triflusulfuron-methyl) on the yield of chicons in two different varieties of chicory. The trial was carried out on plots measuring 3×5 meters. Two varieties of chicory (Hermes and Ecrine) were sown. Treatments were carried out, as described above (a) 18 days after sowing, (b) 25 days after sowing, and (c) 32 days after sowing. Trial assessments were carried out 21 DAAC and 46 DAAC on the number of plants per linear meter, and on their development stage (number of leaves per plant).\nHarvest was carried out 171 DAAC on 4 rows per plot. After harvest, the roots were counted and weighted, and the percent of roots usable for forcing was measured. The roots were then stored in a conservation room for 21 days until start of forcing phase. After 21 days of forcing, the chicons produced were weighed and classified in the commercial quality categories. The brut yield (total weight of chicons produced; marketable+non-marketable), net yield (weight of marketable chicons produced) and best class yield (Extra+1=weight of Extra and First Class chicons produced) were measured (in kilograms per 10 square meters (kg/10 m^2))."}},
  "data": [
    {"smiles": "COc1cnc(OC)n2nc(NS(=O)(=O)c3c(OCC(F)F)cccc3C(F)(F)F)nc12", "note": "[Penoxsulam]", "values": [
      {"measurement": "effect on root yield", "setting": "[1]", "value": "no deleterious effect on root yield"},
      {"measurement": "Yield of Chicons, Brut, Average", "setting": "[2]; 5/5/5 g ai/ha", "value": 40.7, "unit": "Kg/10 m^2"},
      {"measurement": "Yield of Chicons, Brut, Average", "setting": "[2]; 7.5/7.5/7.5 g ai/ha", "value": 40.8, "unit": "Kg/10 m^2"},
      {"measurement": "Yield of Chicons, Brut, Average", "setting": "[2]; 7.5/7.5 g ai/ha", "value": 39.6, "unit": "Kg/10 m^2"},
      {"measurement": "Yield of Chicons, Brut, Average", "setting": "[2]; 10/10/10 g ai/ha", "value": 45.1, "unit": "Kg/10 m^2"},
      {"measurement": "Yield of Chicons, Brut, Average", "setting": "[2]; 11.2/11.2 g ai/ha", "value": 39.9, "unit": "Kg/10 m^2"},
      {"measurement": "Yield of Chicons, Brut, Average", "setting": "[2]; 15/15 g ai/ha", "value": 39.9, "unit": "Kg/10 m^2"},
      {"measurement": "Yield of Chicons, Brut, Ecrine", "setting": "[2]; 5/5/5 g ai/ha", "value": 47.5, "unit": "Kg/10 m^2"},
      {"measurement": "Yield of Chicons, Brut, Hermès", "setting": "[2]; 5/5/5 g ai/ha", "value": 33.8, "unit": "Kg/10 m^2"},
      {"measurement": "Yield of Chicons, Brut, Ecrine", "setting": "[2]; 7.5/7.5/7.5 g ai/ha", "value": 45.1, "unit": "Kg/10 m^2"},
      {"measurement": "Yield of Chicons, Brut, Hermès", "setting": "[2]; 7.5/7.5/7.5 g ai/ha", "value": 36.5, "unit": "Kg/10 m^2"},
      {"measurement": "Yield of Chicons, Brut, Ecrine", "setting": "[2]; 7.5/7.5 g ai/ha", "value": 42.4, "unit": "Kg/10 m^2"},
      {"measurement": "Yield of Chicons, Brut, Hermès", "setting": "[2]; 7.5/7.5 g ai/ha", "value": 36.7, "unit": "Kg/10 m^2"},
      {"measurement": "Yield of Chicons, Brut, Ecrine", "setting": "[2]; 10/10/10 g ai/ha", "value": 50.7, "unit": "Kg/10 m^2"},
      {"measurement": "Yield of Chicons, Brut, Hermès", "setting": "[2]; 10/10/10 g ai/ha", "value": 39.4, "unit": "Kg/10 m^2"},
      {"measurement": "Yield of Chicons, Brut, Ecrine", "setting": "[2]; 11.2/11.2 g ai/ha", "value": 42.8, "unit": "Kg/10 m^2"},
      {"measurement": "Yield of Chicons, Brut, Hermès", "setting": "[2]; 11.2/11.2 g ai/ha", "value": 37, "unit": "Kg/10 m^2"},
      {"measurement": "Yield of Chicons, Brut, Ecrine", "setting": "[2]; 15/15 g ai/ha", "value": 46.4, "unit": "Kg/10 m^2"},
      {"measurement": "Yield of Chicons, Brut, Hermès", "setting": "[2]; 15/15 g ai/ha", "value": 33.4, "unit": "Kg/10 m^2"},
      {"measurement": "Yield of Chicons, Extra + 1, Ecrine", "setting": "[2]; 5/5/5 g ai/ha", "value": 29, "unit": "Kg/10 m^2"},
      {"measurement": "Yield of Chicons, Extra + 1, Hermès", "setting": "[2]; 5/5/5 g ai/ha", "value": 17.7, "unit": "Kg/10 m^2"},
      {"measurement": "Yield of Chicons, Extra + 1, Ecrine", "setting": "[2]; 7.5/7.5/7.5 g ai/ha", "value": 27.2, "unit": "Kg/10 m^2"},
      {"measurement": "Yield of Chicons, Extra + 1, Hermès", "setting": "[2]; 7.5/7.5/7.5 g ai/ha", "value": 18.6, "unit": "Kg/10 m^2"},
      {"measurement": "Yield of Chicons, Extra + 1, Ecrine", "setting": "[2]; 7.5/7.5 g ai/ha", "value": 28.2, "unit": "Kg/10 m^2"},
      {"measurement": "Yield of Chicons, Extra + 1, Hermès", "setting": "[2]; 7.5/7.5 g ai/ha", "value": 21.1, "unit": "Kg/10 m^2"},
      {"measurement": "Yield of Chicons, Extra + 1, Ecrine", "setting": "[2]; 10/10/10 g ai/ha", "value": 29.5, "unit": "Kg/10 m^2"},
      {"measurement": "Yield of Chicons, Extra + 1, Hermès", "setting": "[2]; 10/10/10 g ai/ha", "value": 19.2, "unit": "Kg/10 m^2"},
      {"measurement": "Yield of Chicons, Extra + 1, Ecrine", "setting": "[2]; 11.2/11.2 g ai/ha", "value": 25, "unit": "Kg/10 m^2"},
      {"measurement": "Yield of Chicons, Extra + 1, Hermès", "setting": "[2]; 11.2/11.2 g ai/ha", "value": 22.8, "unit": "Kg/10 m^2"},
      {"measurement": "Yield of Chicons, Extra + 1, Ecrine", "setting": "[2]; 15/15 g ai/ha", "value": 30.7, "unit": "Kg/10 m^2"},
      {"measurement": "Yield of Chicons, Extra + 1, Hermès", "setting": "[2]; 15/15 g ai/ha", "value": 16.1, "unit": "Kg/10 m^2"},
      {"measurement": "Yield of Chicons, Net, Ecrine", "setting": "[2]; 5/5/5 g ai/ha", "value": 36.4, "unit": "Kg/10 m^2"},
      {"measurement": "Yield of Chicons, Net, Hermès", "setting": "[2]; 5/5/5 g ai/ha", "value": 25.6, "unit": "Kg/10 m^2"},
      {"measurement": "Yield of Chicons, Net, Ecrine", "setting": "[2]; 7.5/7.5/7.5 g ai/ha", "value": 34.6, "unit": "Kg/10 m^2"},
      {"measurement": "Yield of Chicons, Net, Hermès", "setting": "[2]; 7.5/7.5/7.5 g ai/ha", "value": 25.7, "unit": "Kg/10 m^2"},
      {"measurement": "Yield of Chicons, Net, Ecrine", "setting": "[2]; 7.5/7.5 g ai/ha", "value": 33.9, "unit": "Kg/10 m^2"},
      {"measurement": "Yield of Chicons, Net, Hermès", "setting": "[2]; 7.5/7.5 g ai/ha", "value": 26.6, "unit": "Kg/10 m^2"},
      {"measurement": "Yield of Chicons, Net, Ecrine", "setting": "[2]; 10/10/10 g ai/ha", "value": 38.7, "unit": "Kg/10 m^2"},
      {"measurement": "Yield of Chicons, Net, Hermès", "setting": "[2]; 10/10/10 g ai/ha", "value": 27.7, "unit": "Kg/10 m^2"},
      {"measurement": "Yield of Chicons, Net, Ecrine", "setting": "[2]; 11.2/11.2 g ai/ha", "value": 33.2, "unit": "Kg/10 m^2"},
      {"measurement": "Yield of Chicons, Net, Hermès", "setting": "[2]; 11.2/11.2 g ai/ha", "value": 28.6, "unit": "Kg/10 m^2"},
      {"measurement": "Yield of Chicons, Net, Ecrine", "setting": "[2]; 15/15 g ai/ha", "value": 37.4, "unit": "Kg/10 m^2"},
      {"measurement": "Yield of Chicons, Net, Hermès", "setting": "[2]; 15/15 g ai/ha", "value": 22.5, "unit": "Kg/10 m^2"}
    ]}
  ]
}
